Laboratory results published in article PMC11876601 (Molecular Systems Biology, 2025).
Values joined by “and” are separate entries in the source; they are usually repeats but may differ in a detail not shown here. Equal entries are not always repeated. Where two headings read alike, the source gives them in different places.

Tests used:
AsPC-1 cells = assay: Cell proliferation assay, chemodrug + ATR inhibitor (Incucyte confluence, 72 h); conditions: for Curve bottom / Curve top: fitted curve, relative response; for Curve slope: fitted dose-response curve; for EC50: Homo sapiens;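 as to all read-outs here: underlying read-out for every value is AsPC-1 confluence after 72 h incubation at 37 °C and 5% CO2, divided by that well's starting confluence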
Method: Cells were seeded at 5000 cells/well into 96-well flat bottom plates (Eppendorf) and allowed to attach overnight. […] Cells were incubated for 72 h at 37 °C and 5% CO2. Cell confluence readouts at 72 h were either normalized to their initial confluence using the Incucyte software (AsPC-1) or used without prior normalization (all others). […] Each experiment was performed in triplicates, the data was plotted as mean ± standard deviation (s.d.).

13 PDAC cell lines = assay: Phenotypic drug combination viability screen (ATPlite, 72 h), cell line panel; type: cell-based, human; conditions: Homo sapiens
[1] = AsPC1, Experiment GEM alone in the Berzosertib series
[2] = AsPC1, Experiment GEM alone in the Ceralasertib series
[3] = AsPC1, Experiment GEM alone in the Elimusertib series
[4] = AsPC1, Experiment GEM alone in the Gartisertib series

With `Nc1ccn([C@@H]2O[C@H](CO)[C@@H](O)C2(F)F)c(=O)n1` [GEM, Gemcitabine] the Curve bottom (AsPC-1 cells; [1]) was 1.01 and 1.02, the Curve top (AsPC-1 cells; [1]) was 0.52 and 0.50 and the Curve bottom (AsPC-1 cells; [2]) was 0.98 and 0.99. For the same compound, the Curve top (AsPC-1 cells; [2]) was 0.56 and 0.44 and 0.46, the Curve bottom (AsPC-1 cells; [3]) was 1.00 and 0.96 and 1.04 and the Curve top (AsPC-1 cells; [3]) was 0.42 and 0.43 and 0.44. The Curve slope (AsPC-1 cells; [3]) was 1.10 and 1.63 and 1.11, the Curve bottom (AsPC-1 cells; [4]) was 0.99 and 0.98 and 1.02 and the Curve top (AsPC-1 cells; [4]) was 0.53 and 0.46 and 0.43. For the same compound, the Curve slope (AsPC-1 cells; [4]) was 0.94 and 1.48 and 1.05, the “Raw data (confluence at 72 h/confluence at 0 h)” value (“Raw data” below) (AsPC-1 cells; Berzosertib experiment, replicate R3, titrated drug dose 1 nM) was 3.42 and the “Raw data” value (AsPC-1 cells; Berzosertib experiment, replicate R3, titrated drug dose 3 nM) was 3.51. For the same compound, the “Raw data” value (AsPC-1 cells; Berzosertib experiment, replicate R3, titrated drug dose 10 nM) was 3.46, the “Raw data” value (AsPC-1 cells; Berzosertib experiment, replicate R3, titrated drug dose 30 nM) was 3.01 and the “Raw data” value (AsPC-1 cells; Berzosertib experiment, replicate R3, titrated drug dose 100 nM) was 2.04. The “Raw data” value (AsPC-1 cells; Berzosertib experiment, replicate R1, titrated drug dose 1 nM) was 3.13, the “Raw data” value (AsPC-1 cells; Berzosertib experiment, replicate R1, titrated drug dose 3 nM) was 3.29 and the “Raw data” value (AsPC-1 cells; Berzosertib experiment, replicate R1, titrated drug dose 10 nM) was 2.93. For the same compound, the “Raw data” value (AsPC-1 cells; Berzosertib experiment, replicate R1, titrated drug dose 30 nM) was 2.52, the “Raw data” value (AsPC-1 cells; Berzosertib experiment, replicate R1, titrated drug dose 100 nM) was 2.11 and the “Raw data” value (AsPC-1 cells; Berzosertib experiment, replicate R1, titrated drug dose 300 nM) was 1.92. The “Raw data” value (AsPC-1 cells; Berzosertib experiment, replicate R2, titrated drug dose 1 nM) was 3.67, the “Raw data” value (AsPC-1 cells; Berzosertib experiment, replicate R2, titrated drug dose 3 nM) was 3.44 and the “Raw data” value (AsPC-1 cells; Berzosertib experiment, replicate R2, titrated drug dose 10 nM) was 3.56. For the same compound, the “Raw data” value (AsPC-1 cells; Berzosertib experiment, replicate R2, titrated drug dose 30 nM) was 3.03, the “Raw data” value (AsPC-1 cells; Ceralasertib experiment, replicate R1, titrated drug dose 1 nM) was 2.79 and the “Raw data” value (AsPC-1 cells; Ceralasertib experiment, replicate R1, titrated drug dose 3 nM) was 3.19. The “Raw data” value (AsPC-1 cells; Ceralasertib experiment, replicate R1, titrated drug dose 10 nM) was 2.64, the “Raw data” value (AsPC-1 cells; Ceralasertib experiment, replicate R1, titrated drug dose 30 nM) was 2.39 and the “Raw data” value (AsPC-1 cells; Ceralasertib experiment, replicate R1, titrated drug dose 100 nM) was 2.12. The “Raw data” value (AsPC-1 cells; Ceralasertib experiment, replicate R2, titrated drug dose 1 nM) was 3.88, the “Raw data” value (AsPC-1 cells; Ceralasertib experiment, replicate R2, titrated drug dose 3 nM) was 3.93 and the “Raw data” value (AsPC-1 cells; Ceralasertib experiment, replicate R2, titrated drug dose 10 nM) was 3.66. For the same compound, the “Raw data” value (AsPC-1 cells; Ceralasertib experiment, replicate R2, titrated drug dose 30 nM) was 3.19, the “Raw data” value (AsPC-1 cells; Ceralasertib experiment, replicate R2, titrated drug dose 100 nM) was 2.36 and the “Raw data” value (AsPC-1 cells; Ceralasertib experiment, replicate R2, titrated drug dose 300 nM) was 1.88. For the same compound, the “Raw data” value (AsPC-1 cells; Ceralasertib experiment, replicate R3, titrated drug dose 1 nM) was 3.42, the “Raw data” value (AsPC-1 cells; Ceralasertib experiment, replicate R3, titrated drug dose 3 nM) was 3.64 and the “Raw data” value (AsPC-1 cells; Experiment (ATRi) Elimusertib, replicate R1, drug dose (titrated) 1 nM) was 3.45. The “Raw data” value (AsPC-1 cells; Experiment (ATRi) Elimusertib, replicate R1, drug dose (titrated) 3 nM) was 3.34, the “Raw data” value (AsPC-1 cells; Experiment (ATRi) Elimusertib, replicate R1, drug dose (titrated) 10 nM) was 3.17 and the “Raw data” value (AsPC-1 cells; Experiment (ATRi) Elimusertib, replicate R1, drug dose (titrated) 30 nM) was 2.54. For the same compound, the “Raw data” value (AsPC-1 cells; Experiment (ATRi) Elimusertib, replicate R1, drug dose (titrated) 100 nM) was 1.97, the “Raw data” value (AsPC-1 cells; Experiment (ATRi) Elimusertib, replicate R1, drug dose (titrated) 1000 nM) was 1.56 and the “Raw data” value (AsPC-1 cells; Experiment (ATRi) Elimusertib, replicate R1, drug dose (titrated) 3000 nM) was 1.44. For the same compound, the “Raw data” value (AsPC-1 cells; Experiment (ATRi) Elimusertib, replicate R2, drug dose (titrated) 1 nM) was 3.86, the “Raw data” value (AsPC-1 cells; Experiment (ATRi) Elimusertib, replicate R2, drug dose (titrated) 3 nM) was 3.95 and the “Raw data” value (AsPC-1 cells; Experiment (ATRi) Elimusertib, replicate R2, drug dose (titrated) 10 nM) was 3.59. For the same compound, the “Raw data” value (AsPC-1 cells; Experiment (ATRi) Elimusertib, replicate R2, drug dose (titrated) 30 nM) was 3.07, the “Raw data” value (AsPC-1 cells; Experiment (ATRi) Elimusertib, replicate R2, drug dose (titrated) 100 nM) was 2.33 and the “Raw data” value (AsPC-1 cells; Experiment (ATRi) Elimusertib, replicate R3, drug dose (titrated) 1 nM) was 3.76. For the same compound, the “Raw data” value (AsPC-1 cells; Experiment (ATRi) Elimusertib, replicate R3, drug dose (titrated) 3 nM) was 3.85, the “Raw data” value (AsPC-1 cells; Experiment (ATRi) Elimusertib, replicate R3, drug dose (titrated) 10 nM) was 3.75 and the “Raw data” value (AsPC-1 cells; Experiment (ATRi) Elimusertib, replicate R3, drug dose (titrated) 30 nM) was 3.15. The “Raw data” value (AsPC-1 cells; Experiment (ATRi) Elimusertib, replicate R3, drug dose (titrated) 100 nM) was 2.28, the “Raw data” value (AsPC-1 cells; Experiment (ATRi) Gartisertib, replicate R1, drug dose (titrated) 1 nM) was 3.28 and the “Raw data” value (AsPC-1 cells; Experiment (ATRi) Gartisertib, replicate R1, drug dose (titrated) 3 nM) was 3.04. The “Raw data” value (AsPC-1 cells; Experiment (ATRi) Gartisertib, replicate R1, drug dose (titrated) 10 nM) was 2.71, the “Raw data” value (AsPC-1 cells; Experiment (ATRi) Gartisertib, replicate R1, drug dose (titrated) 30 nM) was 2.57 and the “Raw data” value (AsPC-1 cells; Experiment (ATRi) Gartisertib, replicate R1, drug dose (titrated) 100 nM) was 2.04. For the same compound, the “Raw data” value (AsPC-1 cells; Experiment (ATRi) Gartisertib, replicate R1, drug dose (titrated) 300 nM) was 1.92, the “Raw data” value (AsPC-1 cells; Gartisertib experiment, replicate R2, titrated drug dose 1 nM) was 4.01 and the “Raw data” value (AsPC-1 cells; Gartisertib experiment, replicate R2, titrated drug dose 3 nM) was 4.05. For the same compound, the “Raw data” value (AsPC-1 cells; Gartisertib experiment, replicate R2, titrated drug dose 10 nM) was 3.93, the “Raw data” value (AsPC-1 cells; Gartisertib experiment, replicate R2, titrated drug dose 30 nM) was 3.32 and the “Raw data” value (AsPC-1 cells; Gartisertib experiment, replicate R2, titrated drug dose 100 nM) was 2.49. The “Raw data” value (AsPC-1 cells; Gartisertib experiment, replicate R2, titrated drug dose 300 nM) was 2.07, the “Raw data” value (AsPC-1 cells; Gartisertib experiment, replicate R2, titrated drug dose 1000 nM) was 1.91 and the “Raw data” value (AsPC-1 cells; Gartisertib experiment, replicate R2, titrated drug dose 3000 nM) was 1.89. The “Raw data” value (AsPC-1 cells; Gartisertib experiment, replicate R3, titrated drug dose 1 nM) was 4.16, the “Raw data” value (AsPC-1 cells; Gartisertib experiment, replicate R3, titrated drug dose 3 nM) was 3.98 and the “Raw data” value (AsPC-1 cells; Gartisertib experiment, replicate R3, titrated drug dose 10 nM) was 3.74. For the same compound, the “Raw data” value (AsPC-1 cells; Gartisertib experiment, replicate R3, titrated drug dose 30 nM) was 3.24, the “Raw data” value (AsPC-1 cells; Gartisertib experiment, replicate R3, titrated drug dose 100 nM) was 2.56 and the “Raw data” value (AsPC-1 cells; Gartisertib experiment, replicate R3, titrated drug dose 300 nM) was 2.02. The EC50 (AsPC-1 cells; ASPC1, 72 h, AsPC1, Experiment GEM (Gemcitabine alone) in the Berzosertib series, single replicates R1-R3) was 34.6 nM, the EC50 (AsPC-1 cells; ASPC1, 72 h, AsPC1, Experiment GEM (Gemcitabine alone) in the Ceralasertib series, single replicates R1-R3) was 42.6 nM and the EC50 (AsPC-1 cells; ASPC1, 72 h, AsPC1, Experiment GEM (Gemcitabine alone) in the Elimusertib series, single replicates R1-R3) was 42.4 nM. It also gave an EC50 (AsPC-1 cells; ASPC1, 72 h, AsPC1, Experiment GEM (Gemcitabine alone) in the Gartisertib series, single replicates R1-R3) of 34.1 nM, an EC50 (AsPC-1 cells; ASPC1, 72 h, read-out: EC50 (cell growth), GEM alone, mean of four experiments) of 45 nM and an EC50 (AsPC-1 cells; ASPC1, 72 h, read-out: EC50 mean [nM], AsPC1, Experiment GEM alone in the Berzosertib series, mean of replicates) of 40.5 nM. It also gave an EC50 (AsPC-1 cells; ASPC1, 72 h, read-out: EC50 mean [nM], AsPC1, Experiment GEM alone in the Ceralasertib series, mean of replicates) of 45.5 nM, an EC50 (AsPC-1 cells; ASPC1, 72 h, read-out: EC50 mean [nM], AsPC1, Experiment GEM alone in the Elimusertib series, mean of replicates) of 44.4 nM and an EC50 (AsPC-1 cells; ASPC1, 72 h, read-out: EC50 mean [nM], AsPC1, Experiment GEM alone in the Gartisertib series, mean of replicates) of 46 nM. For the same compound, the EC50 (AsPC-1 cells; ASPC1, 72 h, read-out: pEC50, AsPC1 (converted), Experiment GEM (Gemcitabine alone) in the Berzosertib series, single replicates R1-R3) was 34.7 nM, the EC50 (AsPC-1 cells; ASPC1, 72 h, read-out: pEC50, AsPC1 (converted), Experiment GEM (Gemcitabine alone) in the Ceralasertib series, single replicates R1-R3) was 42.7 nM and the EC50 (AsPC-1 cells; ASPC1, 72 h, read-out: pEC50, AsPC1 (converted), Experiment GEM (Gemcitabine alone) in the Elimusertib series, single replicates R1-R3) was 42.7 nM. For the same compound, the EC50 (AsPC-1 cells; ASPC1, 72 h, read-out: pEC50, AsPC1 (converted), Experiment GEM (Gemcitabine alone) in the Gartisertib series, single replicates R1-R3) was 33.9 nM, the EC50 (AsPC-1 cells; ASPC1, read-out: EC50 mean [nM], AsPC1, Experiment GEM alone in the Berzosertib series, mean of replicates) was 40.5 nM and the EC50 (AsPC-1 cells; ASPC1, read-out: EC50 mean [nM], AsPC1, Experiment GEM alone in the Ceralasertib series, mean of replicates) was 45.5 nM. For the same compound, the EC50 (AsPC-1 cells; ASPC1, read-out: EC50 mean [nM], AsPC1, Experiment GEM alone in the Elimusertib series, mean of replicates) was 44.4 nM, the EC50 (AsPC-1 cells; ASPC1, read-out: EC50 mean [nM], AsPC1, Experiment GEM alone in the Gartisertib series, mean of replicates) was 46 nM and the EC50 (AsPC-1 cells; ASPC1, read-out: EC50 mean, GEM alone, Berzosertib experiment) was 40.5 nM. The EC50 (AsPC-1 cells; ASPC1, read-out: EC50 mean, GEM alone, Ceralasertib experiment) was 45.5 nM, the EC50 (AsPC-1 cells; ASPC1, read-out: EC50 mean, GEM alone, Elimusertib experiment) was 44.4 nM and the EC50 (AsPC-1 cells; ASPC1, read-out: EC50 mean, GEM alone, Gartisertib experiment) was 46 nM. The “Raw data” value (AsPC-1 cells; titrated drug dose 10 nM, replicate R3, experiment (ATRi) Ceralasertib, AsPC-1, 72 h) was 3.37, the “Raw data” value (AsPC-1 cells; titrated drug dose 30 nM, replicate R3, experiment (ATRi) Ceralasertib, AsPC-1, 72 h) was 2.93 and the “Raw data” value (AsPC-1 cells; titrated drug dose 1000 nM, replicate R3, experiment (ATRi) Ceralasertib, AsPC-1, 72 h) was 1.56. For the same compound, the EC50 (13 PDAC cell lines; read-out: EC50,GEM) was < 0.01 µM and the EC50 (13 PDAC cell lines; read-out: EC50) was ≥ 0.001 µM.
